Data: patent US20220211692A1, “Modulators of the Cystic Fibrosis Transmembrane Conductance Regulator Protein and Methods of Use” (AbbVie Global Enterprises Ltd., priority 2021, published 2022)
Where two headings read alike, the source gives them in different places.

What was measured:
F508del/F508del CFTR = target: T1, F508del/F508del CFTR (Homo sapiens, UniProt P13569, DEL508-508); assay: Trans-Epithelial Current Clamp (TECC) assay using primary human bronchial epithelial cells; format: cell-based; conditions: for Emax (% Dual): maximum percent activity relative to positive control (co-corrector 0.15 μM + potentiator 0.45 μM = 100%); for EC50: primary hBE cells F508del/F508del, test corrector with co-corrector and potentiator, 18-24 hours, equivalent CFTR current
T1 construct: cells isolated from CF patients with the homozygous mutation; endogenous in cells; host or cells: primary human bronchial epithelial (hBE) cells from CF patients homozygous for F508del
T1 sequence (P13569 with tags, fused parts or gaps DEL508-508): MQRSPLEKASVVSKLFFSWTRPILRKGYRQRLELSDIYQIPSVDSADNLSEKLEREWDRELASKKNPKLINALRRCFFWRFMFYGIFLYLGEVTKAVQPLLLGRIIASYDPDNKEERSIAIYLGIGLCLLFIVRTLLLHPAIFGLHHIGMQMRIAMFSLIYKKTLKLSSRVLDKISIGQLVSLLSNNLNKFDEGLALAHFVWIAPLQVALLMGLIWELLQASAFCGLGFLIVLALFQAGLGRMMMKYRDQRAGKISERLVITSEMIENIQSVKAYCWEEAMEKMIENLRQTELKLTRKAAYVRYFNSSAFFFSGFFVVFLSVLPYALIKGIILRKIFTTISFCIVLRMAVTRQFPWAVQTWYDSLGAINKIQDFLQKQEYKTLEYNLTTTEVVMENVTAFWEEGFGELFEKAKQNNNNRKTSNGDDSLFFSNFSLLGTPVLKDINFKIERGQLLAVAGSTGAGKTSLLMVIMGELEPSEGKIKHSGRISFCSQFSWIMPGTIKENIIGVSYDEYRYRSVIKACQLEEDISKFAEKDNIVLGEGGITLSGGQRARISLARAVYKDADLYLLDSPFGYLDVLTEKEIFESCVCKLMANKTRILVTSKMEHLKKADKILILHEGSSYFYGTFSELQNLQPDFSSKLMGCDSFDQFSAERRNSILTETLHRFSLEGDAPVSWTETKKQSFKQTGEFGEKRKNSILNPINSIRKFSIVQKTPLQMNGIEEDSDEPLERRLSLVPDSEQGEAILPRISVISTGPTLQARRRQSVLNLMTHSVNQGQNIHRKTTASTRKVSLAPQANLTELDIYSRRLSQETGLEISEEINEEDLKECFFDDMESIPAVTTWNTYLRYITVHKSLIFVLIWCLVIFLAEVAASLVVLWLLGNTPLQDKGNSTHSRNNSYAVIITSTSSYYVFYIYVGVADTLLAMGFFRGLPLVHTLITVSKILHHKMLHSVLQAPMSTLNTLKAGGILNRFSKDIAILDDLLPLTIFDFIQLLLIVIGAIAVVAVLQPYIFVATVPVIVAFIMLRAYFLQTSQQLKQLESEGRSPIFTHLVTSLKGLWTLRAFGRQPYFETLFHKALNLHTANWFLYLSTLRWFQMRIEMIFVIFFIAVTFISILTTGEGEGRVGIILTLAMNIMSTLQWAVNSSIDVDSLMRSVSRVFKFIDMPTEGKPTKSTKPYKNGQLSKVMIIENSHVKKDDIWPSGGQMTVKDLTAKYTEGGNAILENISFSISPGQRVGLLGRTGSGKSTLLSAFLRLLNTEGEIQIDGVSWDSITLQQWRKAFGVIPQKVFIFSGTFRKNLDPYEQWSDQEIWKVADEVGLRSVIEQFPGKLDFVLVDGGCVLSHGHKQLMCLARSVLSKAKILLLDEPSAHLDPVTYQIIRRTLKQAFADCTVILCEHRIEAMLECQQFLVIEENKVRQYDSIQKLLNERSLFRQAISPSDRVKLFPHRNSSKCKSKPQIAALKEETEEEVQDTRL
Procedure, shortened: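 F508del/F508del primary hBE cells grown 35 days at air-liquid interface were treated basolaterally with C2 correctors plus fixed co-corrector and potentiator for 18-24 h at 37° C. TECC-24 current clamp at 36.5° C in HEPES-buffered F-12 Coon's, pH 7.4; equivalent current IEQ=VT/RT, plus AUC between forskolin peak and bumetanide.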

F508delCFTR = target: T2, F508delCFTR (Homo sapiens, UniProt P13569, DEL508-508); assay: Cell Surface Expression-Horse Radish Peroxidase (CSE-HRP) assay in CFBE41o-F508delCFTR-HRP cells; format: cell-based; conditions: for EC50: CFBE41o-F508delCFTR-HRP cells, 18-24 hours at 33° C.; for Emax: normalized to on-plate positive control, read-out: Maximum % activity (without co-corrector)
T2 construct: expressed in transfected cells; host or cells: CFBE41o- human lung derived epithelial cell line, doxycycline-induced expression
T2 sequence (P13569 with tags, fused parts or gaps DEL508-508): as above
Procedure, shortened: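 Doxycycline (0.5 μg/mL) induced HRP-tagged F508delCFTR in CFBE41o- cells for 68-72 h at 37 °C; compounds ± co-corrector (2 μM) then ran 18-24 h at 33 °C, 8-point 3-fold series from 20 or 30 μM. After DPBS washes, surface HRP was read by luminol luminescence. Activity was normalised to the on-plate positive control versus DMSO, and EC50 was fitted by variable-slope sigmoid from triplicate plates.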

[1] = with co-corrector 2 μM, read-out: EC50 (with co-corrector)
[2] = without co-corrector, read-out: EC50 (without co-corrector)

| SMILES | Emax (% Dual) (F508del/F508del CFTR) | EC50 (F508del/F508del CFTR) [nM] | EC50 (F508delCFTR; [1]) [nM] | EC50 (F508delCFTR; [2]) [nM] | Emax (F508delCFTR; without co-corrector) [%] |
| --- | --- | --- | --- | --- | --- |
| COc1ccc([C@@H]2CO[C@@](C(=O)NS(=O)(=O)c3cccc4nc(C)ccc34)(c3cc(C)ccc3OC)C2)cc1 [Example 44, (2R,4R)-2-(2-methoxy-5-methylphenyl)-4-(4-methoxyphenyl)-N-(2-methylquinoline-5-sulfonyl)oxolane-2-carboxamide] | 335 | 11.6 | 300 | 600 | 512 |
| CCOc1ccc(C)cc1[C@@]1(C(=O)NS(=O)(=O)c2cccc3nc(C4CC4)ccc23)CCCO1 [Example 6, (2R)—N-(2-cyclopropylquinoline-5-sulfonyl)-2-(2-ethoxy-5-methylphenyl)oxolane-2-carboxamide] | 235 | 19.5 | 1000 | 1360 | 712 |
| COc1ccc(C)cc1[C@]1(C(=O)NS(=O)(=O)c2cccc3nc(C)ccc23)C[C@@](C)(OC)CO1 [Example 31, (2S,4R)-4-methoxy-2-(2-methoxy-5-methylphenyl)-4-methyl-N-(2-methylquinoline-5-sulfonyl)oxolane-2-carboxamide] | 117 | > 5000 | – | 5160 | 100 |
| CCc1ccc(Oc2cccnc2OC(F)F)c(C2(C(=O)NS(=O)(=O)c3cccc4nc(C)ccc34)CCCO2)c1 (stereo not shown) [Example 21, 2-(2-{[2-(difluoromethoxy)pyridin-3-yl]oxy}-5-ethylphenyl)-N-(2-methylquinoline-5-sulfonyl)oxolane-2-carboxamide] | 199 | 11.8 | 1290 | 1540 | 857 |
| CCc1ccc(Oc2ccccc2)c([C@@]2(C(=O)NS(=O)(=O)c3cccc4nc(C)ccc34)CCCO2)c1 [Example 23, (2R)-2-(5-ethyl-2-phenoxyphenyl)-N-(2-methylquinoline-5-sulfonyl)oxolane-2-carboxamide] | 241 | 20 | 480 | 1070 | 726 |
| COc1ccc(C)cc1[C@@]1(C(=O)NS(=O)(=O)c2cccc3nc(C)ccc23)C[C@H](c2ccccc2)CO1 [Example 33, (2R,4R)-2-(2-methoxy-5-methylphenyl)-N-(2-methylquinoline-5-sulfonyl)-4-phenyloxolane-2-carboxamide] | 264 | 20.1 | 1630 | 2300 | 756 |
| COc1ccc(C)cc1[C@]1(C(=O)NS(=O)(=O)c2cccc3nc(C)ccc23)CC[C@H](c2ccccc2)O1 [Example 11, (2S,5R)-2-(2-methoxy-5-methylphenyl)-N-(2-methylquinoline-5-sulfonyl)-5-phenyloxolane-2-carboxamide] | 158 | 17.1 | 1190 | 1110 | 542 |
| COc1cccc([C@@H]2CO[C@@](C(=O)NS(=O)(=O)c3cccc4nc(C)ccc34)(c3cc(C)ccc3OC)C2)c1 [Example 42, (2R,4R)-2-(2-methoxy-5-methylphenyl)-4-(3-methoxyphenyl)-N-(2-methylquinoline-5-sulfonyl)oxolane-2-carboxamide] | 237 | 11.1 | 570 | 1120 | 751 |
| COc1ccc(C)cc1[C@@]1(C(=O)NS(=O)(=O)c2cccc3nc(C)ccc23)CC[C@H](c2ccccc2)O1 [Example 12, (2R,5R)-2-(2-methoxy-5-methylphenyl)-N-(2-methylquinoline-5-sulfonyl)-5-phenyloxolane-2-carboxamide] | 315 | 68 | 680 | 700 | 735 |
| COc1ccccc1[C@@H]1CO[C@@](C(=O)NS(=O)(=O)c2cccc3nc(C)ccc23)(c2cc(C)ccc2OC)C1 [Example 39, (2R,4R)-2-(2-methoxy-5-methylphenyl)-4-(2-methoxyphenyl)-N-(2-methylquinoline-5-sulfonyl)oxolane-2-carboxamide] | 239 | 26.1 | 200 | 470 | 470 |
| COc1ccc(C)cc1[C@@]1(C(=O)NS(=O)(=O)c2cccc3nc(C)ccc23)CC[C@@H](c2ccccc2)O1 [Example 8, (2R,5S)-2-(2-methoxy-5-methylphenyl)-N-(2-methylquinoline-5-sulfonyl)-5-phenyloxolane-2-carboxamide] | 339 | 3.2 | 440 | 590 | 702 |
| COc1ccc(C)cc1[C@@]1(C(=O)NS(=O)(=O)c2cccc3nc(C)ccc23)CC(C)(C)CO1 [Example 5, (2R)-2-(2-methoxy-5-methylphenyl)-4,4-dimethyl-N-(2-methylquinoline-5-sulfonyl)oxolane-2-carboxamide] | 242 | 7.8 | 1210 | 2270 | – |
